Source: patent publication US6342582B1, “Reaction and dissolving medium for peptides and synthesis method using this medium” (Rhodia Chimie, priority 1990, dated 2002)
Counter-ions that a name gives are not always drawn. Where a SMILES comes first, the peptide text is derived from it. The star is where a group is joined. OBn = c1ccc(CO*)cc1

Columns and labels:
[1] = Dissolving experiments: solubility of the peptide intermediate in solvent or solvent/additive mixture; details: 25° C.; for Solubility in the 4/1 dichloromethane/phenol mixture: 4/1 dichloromethane/phenol by weight; for Solubility in 4/1 dichloromethane/dimethylformamide: comparison, additive not part of the invention
Description: Protocol for dissolving experiments
The solubilities of the peptide intermediate were determined as follows, at a temperature of 25° C.
An accurately weighed amount of the peptide intermediate is placed in a Pyrex tube. The solvent or mixture of solvents to be tested is then introduced using a precision pipette so as to obtain a ratio of mass of peptide/volume of solvent of 8 g/100 cm^3.
The tube, closed by a screw stopper, is then placed on a HEIDOLPH agitator, TOP-MIX model, vibrating at its maximum speed for 60 seconds.
If not, the volume of solvent is doubled and the procedure is started again.
At the end of 4 successive dilutions without complete dissolution, the measurements are repeated on a smaller amount of solid.
Remarks: The composition of the solvent/additive mixtures is expressed by weight.

[2] = Solubility in dichloromethane determined by HPLC, external standardization, on a saturated solution; type: physicochemical
Description: The solubility in dichloromethane was determined by HPLC, using external standardization, on a saturated solution of Boc-Gly5-OCH3.
The solubility in dichloromethane was determined by HPLC, by external standardization on the supernatant of a saturated solution; the other solubilities were determined as in Example 1: […]

[3] = Distribution of the peptide between dichloromethane (with phenol) and water; type: physicochemical; details: dichloromethane (12 cm^3) + 3.9 g phenol / aqueous KHCO3 2 N (3 cm^3); HPLC
Description: With a view to purification of this tetrapeptide, by washing with water at the end of its synthesis, the distribution of this peptide between dichloromethane and water was studied as follows.
A solution of Gly-Gly-Phe-Leu-OBzl hydrochloride (0.9 mmole) in dichloromethane (12 cm^3) is stirred vigorously in the presence of an aqueous KHCO3 solution (2 N; 3 cm^3). This mixture yields an emulsion which remains stable for several days. A comparative experiment was carried out in the presence of phenol:
A distribution experiment carried out in accordance with Example 15 after the addition of 3.9 g of phenol to the organic solution yields, after identical stirring, two clear liquid phases, the settling out of which is complete in less than 15 minutes.

[4] = comparison additive, concentrations lower than 2 g/100 cm^3 were not tested

For NC(N)=NCCC[C@H](N)C(=O)N1CCC[C@H]1C(=O)O [Afg-Pro.2HCl, L-arginyl-L-proline dihydrochloride] (H-Arg-Pro-OH), the “Solubility in the 4/1 dichloromethane/phenol mixture” value [1] was “s = 2 g/100 cm^3” and the Solubility in dichloromethane [1] was “s < 0.05 g/100 cm^3”.

For COC(=O)CNC(=O)CNC(=O)CNC(=O)CNC(=O)CNC(=O)OC(C)(C)C [Boc-Gly5-OCH3, N-tert-butoxycarbonylpentaglycine methyl ester], the “Solubility in 2-chlorophenol” value ([1]; 2-chlorophenol alone) was “s > 8 g/100 cm^3”, the “Solubility in 4/1 anisole/phenol” value ([1]; 4/1 anisole/phenol by weight) was “s = 4 g/100 cm^3” and the “Solubility in the 4/1 dichloromethane/phenol mixture” value [1] was “s = 4 g/100 cm^3”. For the same compound, the “Solubility in 20/1 dichloromethane/phenol” value ([1]; 20/1 dichloromethane/phenol by weight) was “s = 0.5 g/100 cm^3”, the Solubility in anisole ([1]; anisole) was “s < 0.05 g/100 cm^3” and the “Solubility in dichloromethane (HPLC)” value [2] was “s = 0.33 g/100 cm^3”.

For CC(C)(C)OC(=O)NCC(=O)NCC(=O)NCC(=O)NCC(=O)NCC(=O)OCc1ccccc1 [Boc-Gly-Gly-Gly-Gly-Gly-O-CH2-Ph, N-tert-butoxycarbonylpentaglycine benzyl ester], the “Solubility in 9/1 dichloromethane/phenol” value ([1]; 9/1 dichloromethane/phenol by weight) was “s > 5 g/100 cm^3”, the “Solubility in 9/1 dichloromethane/2-octanol” value [1, 4] was “s < 2 g/100 cm^3” and the “Solubility in 9/1 dichloromethane/dimethylformamide” value [1, 4] was “s < 2 g/100 cm^3”. For the same compound, the “Solubility in 9/1 dichloromethane/pivalic acid” value [1, 4] was “s < 2 g/100 cm^3”, the “Solubility in 9/1 dichloromethane/trifluoroethanol” value [1, 4] was “s < 2 g/100 cm^3” and the “Solubility in dichloromethane saturated with LiCl” value [1, 4] was “s < 2 g/100 cm^3”. The “Solubility in dichloromethane (HPLC)” value [2] was “s = 0.07 g/100 cm^3”.

In the case of CC(C)C[C@H](NC(=O)[C@H](Cc1ccccc1)NC(=O)CNC(=O)CN)C(=O)OCc1ccccc1 [Gly-Gly-Phe-Leu-OBzl, Glycyl-glycyl-L-phenylalanyl-L-leucine benzyl ester] (H-GGFL-OBn), the “Share of the tetrapeptide employed found in the aqueous phase” value [3] is reported as 0.4%.

For N[C@@H](Cc1c[nH]cn1)C(=O)N[C@@H](Cc1c[nH]c2ccccc12)C(=O)O [His,Trp.HCl, L-histidinyl-L-tryptophan hydrochloride], the “Solubility in the 4/1 dichloromethane/phenol mixture” value [1] was “s = 2 g/100 cm^3” and the Solubility in dichloromethane [1] was “s < 0.05 g/100 cm^3”.

With CC(C)C[C@H](N)C(=O)N[C@@H](CCCNC(=N)N)C(=O)N1CCC[C@H]1C(=O)NCC(N)=O [Leu-Arg-Pro-Gly-NH2.HCl, L-leucyl-L-arginyl-L-prolyl-glycinamide hydro-chloride] (H-LRPG-NH2) the “Solubility in 4/1 dichloromethane/3-trifluoromethylphenol” value ([1]; 4/1 dichloromethane/3-trifluoromethylphenol by weight) was “s = 4 g/100 cm^3”, the “Solubility in 4/1 dichloromethane/4-methoxyphenol” value ([1]; 4/1 dichloromethane/4-methoxyphenol by weight) was “s = 4 g/100 cm^3” and the “Solubility in 4/1 dichloromethane/dimethylformamide” value [1] was “s < 0.5 g/100 cm^3”. For the same compound, the “Solubility in the 4/1 dichloromethane/phenol mixture” value [1] was “s = 4 g/100 cm^3”, the “Solubility in 5/1 dichloromethane/2-hydroxypyridine” value ([1]; 5/1 dichloromethane/2-hydroxypyridine by weight) was “s = 1 g/100 cm^3” and the Solubility in dichloromethane [1] was “s < 0.05 g/100 cm^3”.

In the case of NC(=O)CNC(=O)[C@@H]1CCCN1 [Pro-Gly-NH2.HCl, L-prolyl-glycinamide hydrochloride] (H-Pro-Gly-NH2), the “Solubility in 4/1 dichloromethane/dimethylformamide” value [1] is reported as “s < 0.5 g/100 cm^3”, the “Solubility in the 4/1 dichloromethane/phenol mixture” value [1] is reported as “s > 16 g/100 cm^3” and the Solubility in dichloromethane [1] is reported as “s < 0.05 g/100 cm^3”.

For COC(=O)[C@H](Cc1ccc(O)cc1)NC(=O)[C@@H](N)CO [Ser-Tyr-OCH3.HCl, L-serinyl-L-tyrosine methyl ester hydrochloride] (H-Ser-Tyr-OMe), the Solubility in dichloromethane [1] was “s < 0.05 g/100 cm^3”.
